From EP3818828A1 (priority 2019, dated 2021)
Like-named read-outs stand apart in the source and are kept apart here.

What was measured:
Type in all cases: cell-based
[1] = test system: F. graminearum; experiment: microbe, parasite or virus in culture; conditions: for Average Diameter of the Colony: F. graminearum, 1 mg/mL; for inhibition at 1000 µg/mL: Fusarium graminearum, read-out: Inhibition Rate
[2] = test system: Phytophthora infestans; experiment: microbe, parasite or virus in culture; conditions: for Average Diameter of the Colony: 1 mg/mL; for inhibition at 1000 µg/mL: read-out: Inhibition Rate
[3] = test system: C. gossypii; experiment: Ex vivo mycelial growth inhibition, growth rate method; conditions: for Average Diameter of the Colony: C. gossypii; for inhibition at 1000 µg/mL: Colletotrichum gossypii, read-out: Inhibition Rate
Source text: (§1) 3-(3',4'-methylenedioxy phenyl)-N-n-propyl acrylamide (at a purity of 99%), 3-(3',4'-methylenedioxy phenyl)-piperidine acrylate (at a purity of 99%), the control agents, 96.5% of chlorothalonil technical (non-systemic broad-spectrum fungicide), 97.2% of carbendazim technical (systemic broad-spectrum fungicide), 97.0% of procymidone technical (systemic fungicide), 96.0% of dimethomorphtechnical ((E,Z)-4-[3-(4-chlorphenyl)3-(3,4-dimethoxy phenyl)acryloyl]morpholine, systemic fungicide), 97.0% of azoxystrobin technical (systemic broad-spectrum fungicide).
(§2) The inhibition of samples for testing on the mycelial growth of plant pathogenic fungi for testing is determined with a growth rate method. 3-(3',4'-methylenedioxy phenyl)-N-n-propyl acrylamide, 3-(3',4'-methylenedioxy phenyl)-piperidine acrylate and five control agents are dissolved with dimethyl sulfoxide (DMSO), then formulated at 5-7 concentrations of different gradients for test following the trial test results, with the same concentration of DMSO as the control solvent, each treatment in triplicate. Fungal cakes with a diameter of 4 mm are taken from the edge of the colony, inoculated into the center of a PDA plate containing different agents of different concentrations and the DMSO control, with one piece of fungal cake inoculated in each plate (with a diameter of […]), and incubated in a constant temperature incubator at a temperature of 22±1.5°C. 7 days later (10-20 days may be needed for some pathogenic fungi), the diameter of the colony is measured with a cross over method according to the mycelial growth profile of the control pathogenic fungi, then the inhibition rate of mycelial growth is calculated.
(§3) The computational formula is as below: the inhibition rate of mycelial growth (%) = [(the diameter of the control colony - the diameter of the treated colony)/the diameter of the control colony] × 100.
(§4) The inhibition results of each agent at a concentration of 1 mg/mL on the mycelial growth of plant pathogenic fungi are shown in Tables 1 and 2.

[4] = test system: F. oxysporum f. sp. lini; experiment: as above; conditions: 1 mg/mL; for inhibition at 1000 µg/mL: Fusarium oxysporum
Source text: as §1, §2, §3, §4

[5] = test system: Phytophthora capsici; experiment: as above; conditions: Phytophthora capsici; 1 mg/mL
Source text: as §1, §2, §3, §4

[6] = test system: Mycosphaerlla melonis; experiment: as above; conditions: 1 mg/mL
Source text: as §1, §2, §3, §4

[7] = test system: Botrytis cinerea; experiment: as above; conditions: 1 mg/mL
Source text: as §1, §2, §3, §4

[8] = test system: F. oxysporum f. sp. vasinfectum; experiment: as above; conditions: 1 mg/mL; for inhibition at 1000 µg/mL: Fusarium oxysporum
Source text: as §1, §2, §3, §4

[9] = test system: Exserohilum turcicum; experiment: as above; conditions: 1 mg/mL
Source text: as §1, §2, §3, §4

[10] = test system: Sclerotinia sclerotiorum; experiment: as above; conditions: 1 mg/mL
Source text: as §1, §2, §3, §4

[11] = test system: Pyricularia grisea; experiment: microbe, parasite or virus in culture; conditions: for Average Diameter of the Colony: 1 mg/mL; for inhibition at 1000 µg/mL: read-out: Inhibition Rate
[12] = test system: Phytophthora infestans; conditions: Phytophthora infestas; 1 mg/mL
[13] = test system: Pythium aphanidermatum; experiment: Ex vivo mycelial growth inhibition, growth rate method; conditions: 1 mg/mL
Source text: as §1, §2, §3, §4

[14] = test system: F. verticillioide; experiment: as above; conditions: 1 mg/mL
Source text: as §1, §2, §3, §4

[15] = test system: Colletotrichum capsici; experiment: as above; conditions: 1 mg/mL
Source text: as §1, §2, §3, §4

[16] = test system: Rhizoctonia solani; experiment: as above; conditions: Rhizoctonia solani; 1 mg/mL
Source text: as §1, §2, §3, §4

[17] = test system: Coniella diplodiella; experiment: as above; conditions: 1 mg/mL
Source text: as §1, §2, §3, §4

[18] = test system: Thanatephorus cucumeris; experiment: as above; conditions: 1 mg/mL
Source text: as §1, §2, §3, §4

[19] = test system: Fusarium graminearum; experiment: microbe, parasite or virus in culture

COc1ccc(C(=CC(=O)N2CCOCC2)c2ccc(Cl)cc2)cc1OC [Dimethomorph, (E,Z)-4-[3-(4-chlorphenyl)3-(3,4-dimethoxyphenyl)acryloyl]morpholine]
Average Diameter of the Colony [1]: 6.23 cm | inhibition at 1000 µg/mL [1]: 30.8% | Average Diameter of the Colony [2]: 0.00 cm | inhibition at 1000 µg/mL [2]: 100% | Average Diameter of the Colony ([3]; 1 mg/mL): 3.93 cm | inhibition at 1000 µg/mL ([3]; C. cossypii, 1 mg/mL): 56.3% | Average Diameter of the Colony [4]: 6.27 cm | inhibition at 1000 µg/mL [4]: 30.3% | Average Diameter of the Colony [5]: 0.00 cm | inhibition at 1000 µg/mL [5]: 100% | Average Diameter of the Colony [6]: 2.13 cm | inhibition at 1000 µg/mL [6]: 76.3% | Average Diameter of the Colony [7]: 2.33 cm | inhibition at 1000 µg/mL [7]: 74.1% | Average Diameter of the Colony [8]: 6.03 cm | inhibition at 1000 µg/mL [8]: 33% | Average Diameter of the Colony [9]: 6.50 cm | inhibition at 1000 µg/mL [9]: 27.8% | Average Diameter of the Colony [10]: 4.77 cm | inhibition at 1000 µg/mL [10]: 47% | Average Diameter of the Colony [11]: 6.67 cm | inhibition at 1000 µg/mL [11]: 25.9%

CO/C=C(/C(=O)OC)c1ccccc1Oc1cc(Oc2ccccc2C#N)ncn1 [Azoxystrobin, azoxystrobin]
Average Diameter of the Colony [1]: 6.23 cm | inhibition at 1000 µg/mL [1]: 30.8% | Average Diameter of the Colony [2]: 0.00 cm | inhibition at 1000 µg/mL [2]: 100% | Average Diameter of the Colony ([3]; 1 mg/mL): 5.37 cm | inhibition at 1000 µg/mL [3]: 40.3% | Average Diameter of the Colony [4]: 5.93 cm | inhibition at 1000 µg/mL [4]: 34.1% | Average Diameter of the Colony [5]: 6.70 cm | inhibition at 1000 µg/mL [5]: 25.6% | Average Diameter of the Colony [6]: 3.93 cm | inhibition at 1000 µg/mL [6]: 56.3% | Average Diameter of the Colony [7]: 4.33 cm | inhibition at 1000 µg/mL [7]: 51.9% | Average Diameter of the Colony [8]: 3.03 cm | inhibition at 1000 µg/mL [8]: 66.3% | Average Diameter of the Colony [9]: 6.50 cm | inhibition at 1000 µg/mL [9]: 27.8% | Average Diameter of the Colony [10]: 4.40 cm | inhibition at 1000 µg/mL [10]: 51.1% | Average Diameter of the Colony [11]: 4.67 cm | inhibition at 1000 µg/mL [11]: 48.1%

COC(=O)Nc1nc2ccccc2[nH]1 [Carbendazim, carbendazim]
Average Diameter of the Colony [1]: 1.17 cm | inhibition at 1000 µg/mL [1]: 87% | Average Diameter of the Colony [12]: 0.00 cm | Average Diameter of the Colony [2]: 6.80 cm | Average Diameter of the Colony [13]: 0.00 cm | inhibition at 1000 µg/mL [13]: 100% | Average Diameter of the Colony [14]: 0.00 cm | inhibition at 1000 µg/mL [14]: 100% | Average Diameter of the Colony ([3]; 1 mg/mL): 0.00 cm | inhibition at 1000 µg/mL ([3]; C. cossypii, 1 mg/mL): 100% | Average Diameter of the Colony [4]: 0.00 cm | inhibition at 1000 µg/mL [4]: 100% | Average Diameter of the Colony [15]: 0.00 cm | inhibition at 1000 µg/mL ([15]; Colletotrichum truncatum): 100% | Average Diameter of the Colony [16]: 0.00 cm | inhibition at 1000 µg/mL [16]: 100% | Average Diameter of the Colony [5]: 0.00 cm | inhibition at 1000 µg/mL [5]: 100% | Average Diameter of the Colony [6]: 0.00 cm | inhibition at 1000 µg/mL [6]: 100% | Average Diameter of the Colony [17]: 0.00 cm | inhibition at 1000 µg/mL [17]: 100% | Average Diameter of the Colony [7]: 0.00 cm | inhibition at 1000 µg/mL [7]: 100% | Average Diameter of the Colony [8]: 0.00 cm | inhibition at 1000 µg/mL [8]: 100% | Average Diameter of the Colony [9]: 9.00 cm | inhibition at 1000 µg/mL [9]: 0% | Average Diameter of the Colony [10]: 0.00 cm | inhibition at 1000 µg/mL [10]: 100% | Average Diameter of the Colony [18]: 0.00 cm | inhibition at 1000 µg/mL [18]: 100% | Average Diameter of the Colony ([19]; 1 mg/mL): 0.00 cm | inhibition at 1000 µg/mL ([19]; read-out: Inhibition Rate): 100% | Average Diameter of the Colony [11]: 0.00 cm | inhibition at 1000 µg/mL [11]: 100%
